Experimental data reported in PubChem BioAssay AID248 (DTP/NCI, 2004).
Inconclusive results and toxic doses are left out. No stated cut-off is given here; in the data, active means T/C of 150% or more; inactive means T/C below 125%.

System: L1210 leukemia ip in BDF1 mice, survival T/C
Assay: NCI In Vivo Anticancer Drug Screen. Data for tumor model L1210 Leukemia (intraperitoneal) in B6D2F1 (BDF1) mice
Conditions: endpoint: mean survival time, higher = longer survival
Method in brief: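 Antitumor effect is assessed in tumor-bearing animals. Survival in the compound arm is compared with a vehicle-dosed control arm and expressed as their quotient.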

[1] = dose: 5.0 mg/kg/injection, schedule: Q01DX001 (ip), vehicle: saline
[2] = dose: 10.0 mg/kg/injection, schedule: Q01DX001 (ip), vehicle: saline
[3] = dose: 20.0 mg/kg/injection, schedule: Q01DX001 (ip), vehicle: saline
[4] = dose: 40.0 mg/kg/injection, schedule: Q01DX001 (ip), vehicle: saline
[5] = dose: 50.0 mg/kg/injection, schedule: Q01DX001 (ip), vehicle: carboxymethylcellulose (CMC)
[6] = dose: 100.0 mg/kg/injection, schedule: Q01DX001 (ip), vehicle: carboxymethylcellulose (CMC)
[7] = dose: 100.0 mg/kg/injection, schedule: Q04DX003 (ip), vehicle: saline with Tween-80
[8] = dose: 200.0 mg/kg/injection, schedule: Q01DX001 (ip), vehicle: carboxymethylcellulose (CMC)
[9] = dose: 200.0 mg/kg/injection, schedule: Q04DX003 (ip), vehicle: saline with Tween-80
[10] = dose: 400.0 mg/kg/injection, schedule: Q01DX001 (ip), vehicle: carboxymethylcellulose (CMC)
[11] = dose: 400.0 mg/kg/injection, schedule: Q04DX003 (ip), vehicle: saline with Tween-80
[12] = dose: 100.0 mg/kg/injection, schedule: Q01DX009 (ip), vehicle: saline with Tween-80
[13] = dose: 200.0 mg/kg/injection, schedule: Q01DX009 (ip), vehicle: saline with Tween-80
[14] = dose: 400.0 mg/kg/injection, schedule: Q01DX009 (ip), vehicle: saline with Tween-80
[15] = dose: 50.0 mg/kg/injection, schedule: Q01DX009 (ip), vehicle: Klucel (hydroxypropylcellulose) (HPC)
[16] = dose: 100.0 mg/kg/injection, schedule: Q01DX009 (ip), vehicle: Klucel (hydroxypropylcellulose) (HPC)
[17] = dose: 100.0 mg/kg/injection, schedule: Q04DX003 (ip), vehicle: Klucel (hydroxypropylcellulose) (HPC)
[18] = dose: 200.0 mg/kg/injection, schedule: Q01DX009 (ip), vehicle: Klucel (hydroxypropylcellulose) (HPC)
[19] = dose: 200.0 mg/kg/injection, schedule: Q04DX003 (ip), vehicle: Klucel (hydroxypropylcellulose) (HPC)
[20] = dose: 400.0 mg/kg/injection, schedule: Q04DX003 (ip), vehicle: Klucel (hydroxypropylcellulose) (HPC)
[21] = dose: 100.0 mg/kg/injection, schedule: Q04DX002 (ip), vehicle: Klucel (hydroxypropylcellulose) (HPC)
[22] = dose: 200.0 mg/kg/injection, schedule: Q04DX002 (ip), vehicle: Klucel (hydroxypropylcellulose) (HPC)
[23] = dose: 100.0 mg/kg/injection, schedule: Q01DX001 (ip), vehicle: saline with Tween-80
[24] = dose: 100.0 mg/kg/injection, schedule: Q01DX001 (ip), vehicle: Klucel (hydroxypropylcellulose) (HPC)
[25] = dose: 200.0 mg/kg/injection, schedule: Q01DX001 (ip), vehicle: Klucel (hydroxypropylcellulose) (HPC)
[26] = dose: 400.0 mg/kg/injection, schedule: Q01DX001 (ip), vehicle: Klucel (hydroxypropylcellulose) (HPC)
[27] = dose: 200.0 mg/kg/injection, schedule: Q01DX001 (ip), vehicle: saline

Measured: T/C

Oc1ccc([S+](c2ccc(O)cc2)c2ccc(O)cc2)cc1
inactive: [1] 96 % of control | [2] 96 % of control | [3] 107 % of control | [4] 105 % of control

NC(=O)n1ncnc1N
inactive: [5] 110 % of control | [6] 101 % of control | [7] 96 % of control | [8] 104 % of control | [9] 97 % of control | [10] 104 % of control | [11] 105 % of control

O=C1C(=O)c2ccccc2C(O)=C1CC=C1CCCCC1
inactive: dose: 100.0 mg/kg/injection, schedule: Q01DX001 (ip), vehicle: water 100 % of control | dose: 100.0 mg/kg/injection, schedule: Q01DX009 (ip), vehicle: water 103 % of control | dose: 200.0 mg/kg/injection, schedule: Q01DX009 (ip), vehicle: water 98 % of control | dose: 400.0 mg/kg/injection, schedule: Q01DX001 (ip), vehicle: water 108 % of control

O=C(O)CCN(Cc1ccccc1)Cc1ccccc1
inactive: [12] 101 % of control | [7] 108 % of control | [13] 98 % of control | [9] 88 % of control | [14] 98 % of control | [11] 104 % of control

COc1ccccc1C(=O)C(O)c1ccccc1OC (configuration not stated)
inactive: [15] 105 % of control | [16] 101 % of control | [17] 94 % of control | [18] 96 % of control | [19] 96 % of control | dose: 400.0 mg/kg/injection, schedule: Q01DX009 (ip), vehicle: Klucel (hydroxypropylcellulose) (HPC) 101 % of control | [20] 93 % of control

CCCCCCC(C)O[Si](C)Cc1ccccc1 (configuration not stated)
inactive: dose: 100.0 mg/kg/injection, schedule: Q04DX003 (ip), vehicle: other 95 % of control | dose: 200.0 mg/kg/injection, schedule: Q04DX003 (ip), vehicle: other 97 % of control | dose: 400.0 mg/kg/injection, schedule: Q04DX003 (ip), vehicle: other 94 % of control

O=C(/C=C/c1ccc(O)cc1)c1ccccc1
inactive: [12] 102 % of control | [7] 109 % of control | [13] 108 % of control | [9] 102 % of control | [14] 102 % of control | [11] 98 % of control

O=C1c2cccc3cccc(c23)C(=O)N1CCCCCCCCN1C(=O)c2cccc3cccc(c23)C1=O
inactive: [21] 88 % of control | [22] 101 % of control

COc1ccc(/C(C#N)=C2C=C/C(=N\O)C(C)=C/2Cl)cc1
inactive: [5] 109 % of control | [6] 96 % of control | [7] 92 % of control | [8] 93 % of control | [9] 106 % of control | [10] 91 % of control | [11] 97 % of control

CC1(OC(=O)c2ccc([N+](=O)[O-])cc2)CC2CCC1C2 (configuration not stated)
inactive: [23] 98 % of control | dose: 200.0 mg/kg/injection, schedule: Q01DX001 (ip), vehicle: saline with Tween-80 91 % of control | dose: 400.0 mg/kg/injection, schedule: Q01DX001 (ip), vehicle: saline with Tween-80 104 % of control

Cc1cccnc1OCC(=O)O
inactive: [21] 101 % of control | [22] 104 % of control | dose: 400.0 mg/kg/injection, schedule: Q04DX002 (ip), vehicle: Klucel (hydroxypropylcellulose) (HPC) 93 % of control

O=C(O)c1cc2ccccc2o1
inactive: dose: 50.0 mg/kg/injection, schedule: Q01DX009 (ip), vehicle: saline with Tween-80 90 % of control | [12] 97 % of control

CC(=O)c1ccc(Cl)c([N+](=O)[O-])c1
inactive: [24] 91 % of control | [16] 105 % of control | [25] 97 % of control | [18] 100 % of control | [26] 96 % of control

Nc1cccc(CC(=O)c2ccccc2)n1
inactive: [1] 97 % of control | [2] 106 % of control | [3] 100 % of control | [4] 97 % of control | dose: 80.0 mg/kg/injection, schedule: Q01DX001 (ip), vehicle: saline 100 % of control | [27] 106 % of control

O=C1Nc2ccccc2C(=O)Nc2ccccc21
inactive: dose: 100.0 mg/kg/injection, schedule: Q04DX003 (ip), vehicle: acetone 98 % of control | dose: 200.0 mg/kg/injection, schedule: Q04DX003 (ip), vehicle: acetone 93 % of control | dose: 400.0 mg/kg/injection, schedule: Q04DX003 (ip), vehicle: acetone 101 % of control

Cc1ccc(NCC(O)CN2CCOCC2)cc1 (configuration not stated)
inactive: dose: 3.0 mg/kg/injection, schedule: Q04DX003 (ip), vehicle: Klucel (hydroxypropylcellulose) (HPC) 107 % of control | dose: 6.0 mg/kg/injection, schedule: Q01DX009 (ip), vehicle: Klucel (hydroxypropylcellulose) (HPC) 101 % of control | dose: 6.0 mg/kg/injection, schedule: Q04DX003 (ip), vehicle: Klucel (hydroxypropylcellulose) (HPC) 100 % of control | dose: 12.0 mg/kg/injection, schedule: Q01DX009 (ip), vehicle: Klucel (hydroxypropylcellulose) (HPC) 93 % of control | dose: 12.0 mg/kg/injection, schedule: Q04DX003 (ip), vehicle: Klucel (hydroxypropylcellulose) (HPC) 103 % of control | dose: 24.0 mg/kg/injection, schedule: Q01DX009 (ip), vehicle: Klucel (hydroxypropylcellulose) (HPC) 106 % of control | dose: 100.0 mg/kg/injection, schedule: Q01DX001 (ip), vehicle: other 101 % of control

CCCCOC(=O)C1CCCCC1C(=O)OCCCC (configuration not stated)
inactive: [15] 102 % of control | [16] 102 % of control | [18] 90 % of control

CN(C=O)c1cccc(C(=O)O)c1
inactive: [24] 96 % of control | [17] 103 % of control | [25] 94 % of control | [19] 103 % of control | [26] 91 % of control | [20] 97 % of control

O=C1OC(C(Cl)(Cl)Cl)OC1C(Cl)(Cl)Cl (configuration not stated)
inactive: dose: 25.0 mg/kg/injection, schedule: Q01DX001 (ip), vehicle: saline with Tween-80 98 % of control | dose: 50.0 mg/kg/injection, schedule: Q01DX001 (ip), vehicle: saline with Tween-80 96 % of control | [23] 93 % of control

COc1ccc2c(O)c(Oc3ccccc3)c(=O)oc2c1
inactive: dose: 100.0 mg/kg/injection, schedule: Q04DX003 (ip), vehicle: saline 87 % of control | dose: 200.0 mg/kg/injection, schedule: Q04DX003 (ip), vehicle: saline 97 % of control

CCOC(=O)c1c(OC(C)=O)cc(C)nc1OC(C)=O
inactive: dose: 100.0 mg/kg/injection, schedule: Q01DX001 (ip), vehicle: saline 100 % of control | [27] 100 % of control | dose: 400.0 mg/kg/injection, schedule: Q01DX001 (ip), vehicle: saline 111 % of control
